In patent publication US20020065227A1, “Charged compounds comprising a nucleic acid binding moiety and uses therefor” (priority 2000, published 2002):
Converted amounts (≈) assume the structure as drawn. “And” between values parts separate entries of the source, which are not always exact repeats. Equal entries are not always repeated.

Columns and labels:
[1] = system: Haemophilus influenzae (49247); assay: MIC, NCCLS broth microdilution; type: cell-based; details: Haemophilus influenzae (49247)
[2] = system: Fusarium solani (36031); assay: MIC, antifungal assay; type: cell-based
[3] = system: different species of bacteria and fungi; details: exception: Gram-negative bacteria such as Escherichia and Pseudomonas
[4] = system: Candida albicans (38247) (Polyene resistant); assay: MIC, antifungal assay; type: cell-based
[5] = system: Streptococcus pneumoniae (51422) (multiple drug resistant); assay: MIC, NCCLS broth microdilution; type: cell-based
[6] = system: Corynebacterium Group A (49676); assay: MIC, NCCLS broth microdilution; type: cell-based; details: Corynebacterium Group A (49676)
[7] = system: Esherichia coli (25922); assay: MIC, NCCLS broth microdilution; type: cell-based, Escherichia coli; details: Escherichia coli (25922)
[8] = system: Candida albicans (90028); assay: MBC according to NCCLS guideline; type: cell-based
[9] = system: Candida albicans (90028); assay: MIC, antifungal assay; type: cell-based
[10] = system: Listeria monocytogenes (19115); assay: MIC, NCCLS broth microdilution; type: cell-based
[11] = system: Staphylococcus aureus (29213); assay: MBC according to NCCLS guideline; type: cell-based
[12] = system: Trichophyto tonsurans (28942); assay: MIC, antifungal assay; type: cell-based
[13] = system: Enterococcus faecalis (29212); assay: MIC, NCCLS broth microdilution; type: cell-based; details: Enterococcus faecalis (29212)
[14] = system: Staphylococcus aureus (33591) (methicillin resistant)
[15] = system: Corynebacterium Group A (49676)
[16] = system: Clostridium perfringens (13124)
[17] = system: Bacillus anthracis; type: cell-based
[18] = system: Staphylococcus epidermidis (12228); assay: MIC, NCCLS broth microdilution; type: cell-based; details: Staphylococcus epidermidis (12228)
[19] = system: Aspergillus niger (10535); assay: MIC, antifungal assay; type: cell-based
[20] = system: Enterococcus faecalis (29212); assay: MBC according to NCCLS guideline; type: cell-based
[21] = system: all species tested; assay: Microbicidal activity (MIC versus MBC), all species tested; type: cell-based; details: in words; from difference between MICs and MBCs
Source text: The minimal bactericidal concentration (MBC) has been determined for some of these designed compounds according to NCCLS guideline (Lorian, V. 1996 Antibiotics in laboratory medicine (The Williams & Wilkins Co., Baltimore, Md.)). The difference between the MICs and the MBCs has been established as an index of the bactericidal activity of an antibiotic.

[22] = system: Enterococcus faecium (51559) (vacomycin resistant); assay: MIC, NCCLS broth microdilution; type: cell-based; details: Enterococcus faecium (51559), vancomycin resistant
[23] = system: Micrococcus luteus (381)
[24] = system: Staphylococcus aureus (33591) (methicillin resistant); assay: MIC, NCCLS broth microdilution; type: cell-based; details: Staphylococcus aureus (33591), methicillin resistant (MRSA)
[25] = system: Peptostreptococcus asaccharolytics (29743); assay: MIC, NCCLS broth microdilution; type: cell-based; details: anaerobe
[26] = system: ATTACT; assay: DNase I footprint titration, ATTACT site; type: binding; details: equilibrium association constant Ka; pH 7.0, 22° C.
[27] = system: Paecilomyces variotii (22319); assay: MIC, antifungal assay; type: cell-based
[28] = system: Clostridium perfringens (13124); assay: microbe, parasite or virus in culture; type: cell-based; details: Clostridium perfringens (13124), anaerobe
[29] = system: Propionibacterium acnes (33179)
[30] = system: Bacillus cereus (11778); assay: MIC, NCCLS broth microdilution; type: cell-based; details: Bacillus cereus (11778)
[31] = system: Propionibacterium acnes (33179); assay: MIC, NCCLS broth microdilution; type: cell-based; details: anaerobe
[32] = system: Staphylococcus aureus (29213); assay: MIC, NCCLS broth microdilution; type: cell-based; details: Staphylococcus aureus (29213)
[33] = system: Streptococcus pneumoniae (49619); assay: MIC, NCCLS broth microdilution; type: cell-based; details: Streptococcus pneumoniae (49619)
[34] = system: Streptococcus pyogenes (49339); assay: MIC, NCCLS broth microdilution; type: cell-based; details: Streptococcus pyogenes (49339); Table Ia: Streptococcus Group A(49339)
[35] = system: Saccharomyces cerevisiae (44773); assay: MBC according to NCCLS guideline; type: cell-based
[36] = system: Streptococcus pneumoniae (49619); assay: MBC according to NCCLS guideline; type: cell-based
[37] = system: AGTACT; assay: DNase I footprint titration, AGTACT site; type: binding; details: equilibrium association constant Ka; pH 7.0, 22° C.
[38] = system: Peptostreptococcus asaccharolytics (29743)
[39] = system: Staphylococcus epidermidis (12228)
[40] = system: Enterococcus faecium (51559) (vacomycin resistant); details: vancomycin resistant
[41] = system: Bacillus subtilis (6633)
[42] = system: Saccharomyces cerevisiae (44773); assay: MIC, antifungal assay; type: cell-based
[43] = system: Streptococcus pyogenes (49339)
[44] = system: Bacillus subtilis (6633); assay: MIC, NCCLS broth microdilution; type: cell-based; details: Bacillus subtilis (6633)
[45] = system: ACTACT; assay: DNase I footprint titration, ACTACT site; type: binding; details: equilibrium association constant Ka; pH 7.0, 22° C.
[46] = system: AATACT; assay: DNase I footprint titration, AATACT site; type: binding; details: equilibrium association constant Ka; pH 7.0, 22° C.
[47] = system: Bacillus cereus (11778); assay: MBC according to NCCLS guideline; type: cell-based
[48] = system: Pseudomona aeruginosa (27853); assay: MIC, NCCLS broth microdilution; type: cell-based; details: Pseudomona aeruginosa (27853)
[49] = system: TGGTCA; details: equilibrium association constant Ka; pH 7.0, 22° C.

CN(C)CCCNC(=O)c1cc(NC(=O)c2cc(NC(=O)c3cc(NC(=O)c4nsc(NCCCCN)c4Cl)cn3C)cn2C)cn1C [V-a]
MIC [1]: 32 µg/mL (≈ 45.7 µM)
MIC [2]: 4 µg/mL (≈ 5.71 µM)
MIC for most species tested [3]: less than 8 μg/mL
MIC [4]: 4 µg/mL (≈ 5.71 µM)
MIC [5]: 8 µg/mL (≈ 11.4 µM)
MIC [6]: 0.25 µg/mL and 0.25 to 0.5 µg/mL
MIC [7]: >128 µg/mL
MBC [8]: 4 µg/mL (≈ 5.71 µM)
MIC [9]: 4 µg/mL (≈ 5.71 µM)
MIC [10]: 4 µg/mL (≈ 5.71 µM)
MBC [11]: 2 µg/mL (≈ 2.86 µM)
MIC [12]: 16 µg/mL (≈ 22.8 µM)
MIC [13]: 1 µg/mL (≈ 1.43 µM)
MBC [14]: 4 µg/mL (≈ 5.71 µM)
MBC [15]: 0.25 µg/mL (≈ 0.357 µM)
MBC [16]: 2 µg/mL (≈ 2.86 µM)
MIC [17]: 4 µg/mL (≈ 5.71 µM)
MIC [18]: 1 µg/mL (≈ 1.43 µM)
MIC [19]: 2 µg/mL (≈ 2.86 µM)
MBC [20]: >4 µg/mL
Microbicidal activity [21]: microbicidal agents for all species tested
MIC [22]: 1 µg/mL (≈ 1.43 µM)
MBC [23]: 0.5 µg/mL (≈ 0.714 µM)
MIC [24]: 2 µg/mL (≈ 2.86 µM)
MIC [25]: 0.125 µg/mL (≈ 0.179 µM)
Binding Constant, sequence ATTACT [26]: 1e+08 M⁻¹
MIC [27]: 0.5 µg/mL (≈ 0.714 µM)
MIC [28]: 1 µg/mL (≈ 1.43 µM)
MBC [29]: 8 µg/mL (≈ 11.4 µM)
MIC [30]: 0.25 µg/mL (≈ 0.357 µM)
MIC [31]: 2 µg/mL and 4 µg/mL
MIC [32]: 2 µg/mL (≈ 2.86 µM)
MIC [33]: 0.5 µg/mL (≈ 0.714 µM)
MIC [34]: 0.125 µg/mL (≈ 0.179 µM)
MBC [35]: 8 µg/mL (≈ 11.4 µM)
MBC [36]: 0.5 µg/mL (≈ 0.714 µM)
Binding Constant, sequence AGTACT [37]: 3e+09 M⁻¹
MBC [38]: 0.25 µg/mL (≈ 0.357 µM)
MBC [39]: 1 µg/mL (≈ 1.43 µM)
MBC [40]: 2 to 4 µg/mL
MBC [41]: 0.5 µg/mL (≈ 0.714 µM)
MIC [42]: 8 µg/mL (≈ 11.4 µM)
MBC [43]: 0.125 µg/mL (≈ 0.179 µM)
MIC [44]: 0.25 µg/mL and 0.25 to 0.5 µg/mL
Binding Constant, sequence ACTACT [45]: 1e+08 M⁻¹
Binding Constant, sequence AATACT [46]: 1e+08 M⁻¹
MBC [47]: 0.5 µg/mL (≈ 0.714 µM)
MIC [48]: >128 µg/mL

CN(C)CCCNC(=O)c1cc(NC(=O)c2cc(NC(=O)c3cc(NC(=O)c4nsc(NCCCN)c4Cl)cn3C)cn2C)cn1C [V-b]
MIC [1]: 32 µg/mL (≈ 46.6 µM)
MIC [2]: 4 to 8 µg/mL
MIC [5]: 1 µg/mL (≈ 1.46 µM)
MIC [6]: 0.5 µg/mL (≈ 0.729 µM)
MIC [7]: >128 µg/mL
MBC [8]: 4 µg/mL (≈ 5.83 µM)
MIC [9]: 4 µg/mL (≈ 5.83 µM)
MIC [10]: 8 µg/mL (≈ 11.7 µM)
MBC [11]: 4 µg/mL (≈ 5.83 µM)
MIC [12]: 16 µg/mL (≈ 23.3 µM)
MIC [13]: 1 µg/mL (≈ 1.46 µM)
MIC [17]: 32 µg/mL (≈ 46.6 µM)
MIC [18]: 2 µg/mL (≈ 2.91 µM)
MIC [19]: 4 µg/mL (≈ 5.83 µM)
MBC [20]: >4 µg/mL
Microbicidal activity [21]: microbicidal agents for all species tested
MIC [22]: 2 to 4 µg/mL
MIC [24]: 4 µg/mL (≈ 5.83 µM)
MIC [25]: 0.125 µg/mL (≈ 0.182 µM)
Binding Constant, sequence ATTACT [26]: 1e+08 M⁻¹
MIC [27]: 0.5 µg/mL (≈ 0.729 µM)
MIC [28]: 1 µg/mL (≈ 1.46 µM)
MIC [30]: 0.5 µg/mL (≈ 0.729 µM)
MIC [31]: 4 µg/mL (≈ 5.83 µM)
MIC [32]: 2 µg/mL (≈ 2.91 µM)
MIC [33]: 0.5 µg/mL (≈ 0.729 µM)
MIC [34]: 0.25 µg/mL (≈ 0.364 µM)
MBC [35]: 16 µg/mL (≈ 23.3 µM)
MBC [36]: 0.5 µg/mL (≈ 0.729 µM)
Binding Constant, sequence AGTACT [37]: 3e+09 M⁻¹
MIC [42]: 16 µg/mL (≈ 23.3 µM)
MIC [44]: 0.5 to 1 µg/mL
Binding Constant, sequence ACTACT [45]: 2e+08 M⁻¹
Binding Constant, sequence AATACT [46]: 1e+08 M⁻¹
MBC [47]: 0.5 µg/mL (≈ 0.729 µM)
MIC [48]: >128 µg/mL

CN(C)CCCNC(=O)CCNC(=O)c1cc(NC(=O)c2cc(NC(=O)c3cc(NC(=O)c4cc(NC(=O)c5nsc(Cl)c5Cl)cn4C)cn3C)cn2C)cn1C [V-t]
Binding Constant, sequence ATTACT [26]: 2e+08 M⁻¹
Binding Constant, sequence TGGTCA [49]: 1e+10 M⁻¹
Binding Constant, sequence AGTACT [37]: 2e+08 M⁻¹
Binding Constant, sequence ACTACT [45]: 2e+08 M⁻¹
Binding Constant, sequence AATACT [46]: 2e+08 M⁻¹
